The target of the assay is ROCK2 (human) (UniProt O75116). Description: Enzyme Assay.

Here are results for 16 compounds from the Kinase Knowledgebase extract (Sharma et al. 2016).

ROCK2 (human), sequence (O75116 whole entry, looked up): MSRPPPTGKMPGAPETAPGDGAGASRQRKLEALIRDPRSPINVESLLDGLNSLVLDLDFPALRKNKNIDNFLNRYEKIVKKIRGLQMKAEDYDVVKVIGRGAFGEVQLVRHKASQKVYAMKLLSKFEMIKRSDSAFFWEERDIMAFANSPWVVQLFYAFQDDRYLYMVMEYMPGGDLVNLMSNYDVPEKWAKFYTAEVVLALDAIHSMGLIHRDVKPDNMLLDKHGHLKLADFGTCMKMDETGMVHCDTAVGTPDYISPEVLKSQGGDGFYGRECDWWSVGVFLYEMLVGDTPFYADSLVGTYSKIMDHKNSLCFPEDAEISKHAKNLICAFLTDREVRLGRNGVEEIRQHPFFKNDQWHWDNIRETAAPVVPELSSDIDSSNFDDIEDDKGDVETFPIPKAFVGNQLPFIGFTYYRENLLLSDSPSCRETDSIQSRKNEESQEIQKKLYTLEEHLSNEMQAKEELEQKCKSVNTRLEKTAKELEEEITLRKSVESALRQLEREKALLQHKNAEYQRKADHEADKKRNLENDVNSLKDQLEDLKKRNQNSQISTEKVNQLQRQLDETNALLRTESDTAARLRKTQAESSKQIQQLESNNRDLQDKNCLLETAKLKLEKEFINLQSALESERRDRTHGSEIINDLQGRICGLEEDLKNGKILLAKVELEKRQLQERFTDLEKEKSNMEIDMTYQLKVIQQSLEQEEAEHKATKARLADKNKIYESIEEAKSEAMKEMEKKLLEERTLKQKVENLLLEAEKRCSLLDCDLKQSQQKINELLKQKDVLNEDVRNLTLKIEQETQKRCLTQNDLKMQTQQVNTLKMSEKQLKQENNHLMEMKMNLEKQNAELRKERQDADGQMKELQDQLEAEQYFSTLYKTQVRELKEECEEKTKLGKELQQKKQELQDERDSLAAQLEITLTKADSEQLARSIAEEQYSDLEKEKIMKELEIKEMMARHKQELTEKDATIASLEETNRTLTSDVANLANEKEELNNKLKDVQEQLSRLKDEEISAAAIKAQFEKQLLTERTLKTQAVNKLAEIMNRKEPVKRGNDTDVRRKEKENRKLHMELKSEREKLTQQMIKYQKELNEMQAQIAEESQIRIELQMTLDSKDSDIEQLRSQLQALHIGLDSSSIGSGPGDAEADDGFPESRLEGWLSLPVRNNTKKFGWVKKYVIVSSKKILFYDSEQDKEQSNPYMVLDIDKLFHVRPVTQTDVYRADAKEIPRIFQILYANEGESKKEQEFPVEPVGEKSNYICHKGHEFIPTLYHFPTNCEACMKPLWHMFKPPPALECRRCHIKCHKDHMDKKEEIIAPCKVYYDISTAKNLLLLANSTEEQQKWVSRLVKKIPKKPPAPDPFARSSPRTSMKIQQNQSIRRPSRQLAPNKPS

Broadly, the IC50 is the concentration that inhibits the measured activity by half. The low end stands for greater potency, the high end for weaker potency. `NCc1ccc(C(=O)Nc2ccncc2F)cc1-c1cccc(C(=O)Nc2ccc(OC3CCOC3=O)cc2)c1` (stereo unspecified) showed an IC50 below 100 nM.

Regarding `NCc1ccc(C(=O)Nc2ccncc2F)cc1-c1cccc(C(=O)Nc2cccc(SC3CCOC3=O)c2)c1` (stereo unspecified), the IC50 was below 100 nM.

`Cc1cc(NC2CCOC2=O)ccc1NC(=O)c1cccc(-c2cc(C(=O)Nc3ccncc3F)ccc2CN)c1` (stereo unspecified) registered an IC50 below 100 nM.

`NCc1ccc(C(=O)Nc2ccncc2F)cc1-c1cccc(NC(=O)c2ccc(NC3CCOC3=O)cc2)c1` (stereo unspecified): the IC50 is below 100 nM.

`NCc1ccc(C(=O)Nc2ccncc2F)cc1-c1cccc(C(=O)Nc2ccc(NC3CCOC3=O)cc2)c1` (stereo unspecified): the IC50 was below 100 nM.

For the compound `NCc1ccc(C(=O)Nc2ccncc2F)cc1-c1cccc(C(=O)Nc2ccc(SCC3CCOC3=O)cc2)c1` (stereo unspecified), the IC50 is below 100 nM.

For `NCc1ccc(C(=O)Nc2ccncc2F)cc1-c1cccc(C(=O)Nc2ccc(CNC3CCOC3=O)cc2)c1` (stereo unspecified), the IC50 was below 100 nM.

`CC1CC(Sc2ccc(NC(=O)c3cccc(-c4cc(C(=O)Nc5ccncc5F)ccc4CN)c3)cc2)C(=O)O1` (stereo unspecified) displayed an IC50 below 100 nM.

As to `NCc1ccc(C(=O)Nc2ccncc2F)cc1-c1cccc(NC(=O)c2ccc(SC3CCOC3=O)cc2)c1` (stereo unspecified), the IC50 is below 100 nM.

`NCc1ccc(C(=O)Nc2ccncc2F)cc1-c1cccc(C(=O)Nc2ncc(NC3CCOC3=O)s2)c1` (stereo unspecified) registered an IC50 below 100 nM.

As to `CC1(C)COC(=O)C1Sc1ccc(NC(=O)c2cccc(-c3cc(C(=O)Nc4ccncc4F)ccc3CN)c2)cc1` (stereo unspecified), the IC50 was below 100 nM.

Compound `NCc1ccc(C(=O)Nc2ccncc2)cc1-c1cccc(NC(=O)c2ccc(SC3CCOC3=O)cc2)c1` (stereo unspecified) registered an IC50 below 100 nM.

`NCc1ccc(C(=O)Nc2ccncc2F)cc1-c1cccc(C(=O)Nc2ccc(SC3CCOC3=O)cc2F)c1` (stereo unspecified) gave an IC50 below 100 nM.

In turn, `CN(c1ccc(NC(=O)c2cccc(-c3cc(C(=O)Nc4ccncc4F)ccc3CN)c2)cc1)C1CCOC1=O` (stereo unspecified) had an IC50 below 100 nM.

`NCc1ccc(C(=O)Nc2ccncc2F)cc1-c1cccc(C(=O)Nc2ccc(SC3CCOC3=O)cc2)c1` (stereo unspecified) registered an IC50 below 100 nM.

The compound `NCc1ccc(C(=O)Nc2ccncc2F)cc1-c1cccc(C(=O)Nc2ccc(SC3COC(=O)C3)cc2)c1` (stereo unspecified) returned an IC50 below 100 nM.
